Experimental findings from US5155106A, “Cysteamine derivatives and antirheumatic agents containing cysteamine derivatives” (Terumo Kabushiki Kaisha, priority 1988, dated 1992) are described below.

Each structure is given as a SMILES string.

The test system of this assay is adjuvant arthritis of Lewis rats. Put plainly: Suppression of adjuvant arthritis in Lewis rats (hind leg sole edema, Mycobacterium butyricum). Format: in vivo. The following applies: Rattus norvegicus, 432 h, 100 mg/kg oral once a day, 18 days after sensitization; for inhibition in vivo at 100 mg/kg: edema increase vs control group, t-test *P<0.05, **P<0.02, ***P<0.01; for change in vivo at 100 mg/kg: percent increase vs volume before sensitization, control 130.9 ± 5.1 (Table 1), 137.6 ± 15.7 (Table 2), 131.0 ± 10.0 (Table 3), read-out: Increase in volume due to edema. The procedure:
The compounds according to the present invention obtained in the Examples were evaluated for their effects against adjuvant arthritis (diseased animal model for chronic articular rheumatism) of Lewis rats.
In the Experiment, five six week old male Lewis rats (body weight, 130 to 160 g) were treated as one group.
To right hind leg sole of rats from each group was subcutaneously injected with 0.2 mg of dry culture of Mycobacterium butyricum suspended in liquid paraffin. The compounds were suspended in 5% Tween 80, and the suspensions were orally administered to the rats once a day from the day next to the day of sensitization. The rats of both the medicated groups and the control group (non-medicated group) were intermittently measured for their volume of edema in their hind leg sole to examine the effects of the compounds for suppressing the adjuvant arthritis.
Percent increase in the volume of the hind leg sole due to the edema was calculated on the basis of the volume before sensitization, and suppression was determined by comparing the percent increase of the medicated group with that of the control group.

For orientation: inhibition in vivo means the drop in the measured response relative to a control, in per cent.

Take `COc1ccc(C(=O)NC2=NCCS2)c(O)c1` [XIII, 2-(2-hydroxy-4-methoxybenzoylamino)thiazoline]: the inhibition in vivo at 100 mg/kg came out at 23.5% and the change in vivo at 100 mg/kg is 100 ± 3.1%.

For the compound `CCCc1c(OC)ccc(C(=O)N2CCSCC2)c1O` [XIV, N-(2-hydroxy-3-n-propyl-4-methoxybenzoyl)thiomorpholine], the inhibition in vivo at 100 mg/kg turned out to be 21.5% and the change in vivo at 100 mg/kg amounted to 103 ± 10%.

As for `CCCCCCCCSCCNC(=O)c1ccc(OC)cc1O` [XIX, 2-(2'-hydroxy-4'-methoxybenzoylamino)ethyl-n-octylsulfide], the inhibition in vivo at 100 mg/kg came out at 41.4% and the change in vivo at 100 mg/kg amounted to 76.8 ± 17.8%.

As to `CCCc1c(OC)ccc(C(=O)N2CCSC2)c1O` [XV, N-(2-hydroxy-3-n-propyl-4-methoxybenzoyl)thiazolidine], the inhibition in vivo at 100 mg/kg stood at 27% and the change in vivo at 100 mg/kg was found to be 95.6 ± 9.6%.

Regarding `CCCc1c(OC)ccc(C(=O)NCc2cccs2)c1O` [XVI, N-(2-hydroxy-3-n-propyl-4-methoxybenzoyl)-2-thiophenemethylamine], the inhibition in vivo at 100 mg/kg was found to be 34.4% and the change in vivo at 100 mg/kg came out at 85.9 ± 11.1%.

As to `COc1ccc(C(=O)NCCS)c(O)c1` [XVII, N-(2-hydroxy-4-methoxybenzoyl)cysteamine], the inhibition in vivo at 100 mg/kg worked out at 38.4% and the change in vivo at 100 mg/kg amounted to 84.8 ± 10.4%.

Turning to `CCCc1c(OC)ccc(C(=O)NCCS)c1O` [XVIII], the inhibition in vivo at 100 mg/kg amounted to 30.1% and the change in vivo at 100 mg/kg was 91.6 ± 10.9%.

With `CCCCCCCCSCCNC(=O)c1ccc(OC)c(CCC)c1O` [XX, 2-(2'-hydroxy-3'-n-propyl-4'-methoxybenzoylamino)ethyl-n-octylsulfide], the inhibition in vivo at 100 mg/kg turned out to be 21.1% and the change in vivo at 100 mg/kg stood at 103 ± 8.8%.
